Experimental data taken from paper PMC7044277 (Nature Communications, 2020).
“And” between values parts separate entries of the source, which are not always exact repeats. Equal values may be shown once.

How the values were obtained:
Format in all cases: cell-based
[1] = target: T1, 320 non-olfactory GPCRs (Homo sapiens, UniProt Q969V1); settings: receptor MCHR2R; replicate values, Fig_4g
T1 construct: expressed in transfected cells; host or cells: HTLA cells

[2] = target: T2, 320 non-olfactory GPCRs (Homo sapiens, UniProt Q8IZF7)
T2 construct: expressed in transfected cells; host or cells: HTLA cells

[3] = target: T3, 320 non-olfactory GPCRs (Homo sapiens, UniProt P46091)
T3 construct: expressed in transfected cells; host or cells: HTLA cells

[4] = target: T4, 320 non-olfactory GPCRs (Homo sapiens, UniProt P25024)
T4 construct: expressed in transfected cells; host or cells: HTLA cells
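Wherever Fold of Basal is given: compound tested at 1 µM final concentration.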
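Wherever GPCRome agonism screen response is given: fold over basal response of each receptor without drug.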

T1 sequence (Q969V1 whole entry): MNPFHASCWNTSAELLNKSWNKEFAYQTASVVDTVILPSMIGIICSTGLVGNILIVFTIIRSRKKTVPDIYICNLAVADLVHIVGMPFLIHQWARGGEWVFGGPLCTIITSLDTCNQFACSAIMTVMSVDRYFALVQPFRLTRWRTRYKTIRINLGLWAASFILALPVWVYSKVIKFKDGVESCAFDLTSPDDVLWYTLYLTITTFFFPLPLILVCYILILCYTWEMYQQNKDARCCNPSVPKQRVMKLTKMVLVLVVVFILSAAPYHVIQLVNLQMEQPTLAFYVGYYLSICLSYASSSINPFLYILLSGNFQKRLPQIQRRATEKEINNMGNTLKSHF
T2 sequence (Q8IZF7 whole entry): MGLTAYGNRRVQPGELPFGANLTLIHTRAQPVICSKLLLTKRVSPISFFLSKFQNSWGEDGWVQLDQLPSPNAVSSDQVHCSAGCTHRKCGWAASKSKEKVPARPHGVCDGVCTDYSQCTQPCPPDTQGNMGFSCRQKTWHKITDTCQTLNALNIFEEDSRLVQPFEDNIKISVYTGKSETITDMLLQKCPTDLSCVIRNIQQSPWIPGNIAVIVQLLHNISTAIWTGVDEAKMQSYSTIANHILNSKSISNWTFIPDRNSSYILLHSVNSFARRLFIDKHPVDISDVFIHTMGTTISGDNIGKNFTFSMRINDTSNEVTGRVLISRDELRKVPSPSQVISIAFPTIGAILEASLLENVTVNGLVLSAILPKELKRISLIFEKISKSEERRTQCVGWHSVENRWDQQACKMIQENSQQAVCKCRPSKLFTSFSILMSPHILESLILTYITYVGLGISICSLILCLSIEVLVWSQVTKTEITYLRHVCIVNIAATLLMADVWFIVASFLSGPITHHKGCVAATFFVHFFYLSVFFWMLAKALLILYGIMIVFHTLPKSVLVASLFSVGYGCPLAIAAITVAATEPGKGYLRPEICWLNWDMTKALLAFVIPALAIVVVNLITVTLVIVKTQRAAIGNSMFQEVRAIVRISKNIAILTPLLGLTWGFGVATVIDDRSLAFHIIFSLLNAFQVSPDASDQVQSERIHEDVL
T3 sequence (P46091 whole entry): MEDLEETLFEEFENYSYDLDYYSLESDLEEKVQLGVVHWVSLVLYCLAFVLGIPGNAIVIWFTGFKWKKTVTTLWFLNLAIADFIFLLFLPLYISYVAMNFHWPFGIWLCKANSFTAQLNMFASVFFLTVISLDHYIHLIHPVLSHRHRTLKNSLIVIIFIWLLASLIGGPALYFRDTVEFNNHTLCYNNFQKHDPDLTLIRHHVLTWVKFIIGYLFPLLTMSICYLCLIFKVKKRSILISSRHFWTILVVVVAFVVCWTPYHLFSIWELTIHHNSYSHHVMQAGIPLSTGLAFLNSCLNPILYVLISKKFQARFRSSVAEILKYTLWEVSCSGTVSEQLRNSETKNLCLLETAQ
T4 sequence (P25024 whole entry): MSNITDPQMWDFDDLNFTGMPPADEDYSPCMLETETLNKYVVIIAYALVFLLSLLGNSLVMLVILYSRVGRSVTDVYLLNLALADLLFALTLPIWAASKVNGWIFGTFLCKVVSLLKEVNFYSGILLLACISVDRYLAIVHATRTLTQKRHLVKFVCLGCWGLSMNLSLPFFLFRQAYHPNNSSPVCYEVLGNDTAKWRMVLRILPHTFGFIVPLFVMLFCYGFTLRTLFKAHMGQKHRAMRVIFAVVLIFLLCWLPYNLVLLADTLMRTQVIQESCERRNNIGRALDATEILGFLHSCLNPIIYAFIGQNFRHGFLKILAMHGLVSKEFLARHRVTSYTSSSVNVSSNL

## CCOc1cccc2cc(C(C)NCC3(O)CCCCC3)oc12 (stereo not shown) [O4LE6]
[1]
  GPCRome agonism screen response: 1.156 and 0.4645 and 1.04 and 0.6466
[2]
  Fold of Basal: 0.7426 and 0.9005 and 0.7298 and 0.9165
[3]
  Fold of Basal: 1.745 and 1.544 and 1.297 and 1.2172
[4]
  Fold of Basal: 1.143 and 1.163 and 1.159 and 1.512
